According to PubChem BioAssay AID493086 (The Scripps Research Institute Molecular Screening Center, 2011):
Calls of active or inactive are those of the source.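 Rule for the calls: active = IC50 at or below 10 µM; inactive = IC50 above 10 µM.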

Target: Induced myeloid leukemia cell differentiation protein Mcl-1 (Homo sapiens) (UniProt Q07820)
Experiment: MCL1 binding to BIM-BH3 peptide, inhibitors, late-stage follow-up, biochemical, fluorescence polarization, assay provider data, powder samples (AID 493086)
Details: GST-MCL1 / FITC-BIM-BH3 fluorescence polarization

Sequence of Induced myeloid leukemia cell differentiation protein Mcl-1 (Homo sapiens) (Q07820 whole entry, looked up): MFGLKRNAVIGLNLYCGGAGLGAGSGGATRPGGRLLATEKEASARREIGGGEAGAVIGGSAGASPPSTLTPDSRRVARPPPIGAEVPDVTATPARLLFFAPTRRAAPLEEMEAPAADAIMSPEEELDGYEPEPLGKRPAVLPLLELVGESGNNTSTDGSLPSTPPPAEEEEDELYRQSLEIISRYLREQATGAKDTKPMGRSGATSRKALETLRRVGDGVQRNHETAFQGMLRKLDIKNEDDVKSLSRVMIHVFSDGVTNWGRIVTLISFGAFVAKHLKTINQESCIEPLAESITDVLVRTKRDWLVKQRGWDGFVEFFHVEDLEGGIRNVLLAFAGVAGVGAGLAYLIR

| IC50 | SMILES |
| --- | --- |
| inactive | O=C(Nc1cccc(S(=O)(=O)NC2=NCCC2)c1)c1cc(-c2ccco2)nc2ccccc12 |
| > 20 µM (inactive) | Cc1ccc(-c2cc(C(=O)N3CCN(c4ccccc4O)CC3)c3ccccc3n2)o1 |
| inactive | O=C(Nc1ccccc1F)c1cc(-c2ccco2)nc2ccccc12 |
| inactive | COc1ccc(NC(=O)c2cc(-c3ccco3)nc3ccccc23)cc1S(=O)(=O)N1CCOCC1 |
| > 20 µM (inactive) | Cc1ccc(-c2cc(C(=O)N3CCN(c4ccc(F)cc4)CC3)c3ccccc3n2)o1 |

More lines, now with the values behind:

| SMILES | IC50 |
| --- | --- |
| CCc1nnc(NC(=O)c2cc(-c3ccco3)nc3ccccc23)s1 | inactive |
| O=C(Nc1cccc(S(=O)(=O)NC2=NCCCCC2)c1)c1cc(-c2ccco2)nc2ccccc12 | > 20 µM (inactive) |
| Cc1ccc(-c2cc(C(=O)NCCCn3ccnc3)c3cc(Br)ccc3n2)o1 | inactive |
| COc1ccc(Cc2nnc(NC(=O)C(=O)c3ccco3)s2)cc1OC | > 20 µM (inactive) |
| O=C(NC1CCC(O)CC1)c1cc(-c2ccco2)nc2ccccc12 (stereo unspecified) | inactive |
| CCCCN(C(=O)c1cc(-c2ccco2)nc2ccccc12)c1c(N)n(CCCC)c(=O)[nH]c1=O | > 20 µM (inactive) |
